{"source": "patent US6673555B1", "about": "“Methods of using SCAP antagonists” (SmithKline Beecham Corporation, priority 1999, dated 2004)", "key": {"[1]": {"system": "human LDL-receptor promoter", "test": "LDL-receptor promoter luciferase reporter assay in transfected HepG2 cells", "assay_type": "cell-based", "from_the_text": "The human LDL-receptor promoter named p-588 corresponding to nucleotide −588 to +91 relative to the major transcription site was cloned by PCR from human genomic DNA (Clonetech) using SEQ ID NO: 3 […] and SEQ ID NO: 4 […] primers. and inserted into pGL3-basic vector (Promega) at Hind-III and Nco-I sites. The sequencing was identical to published promoter (Genbank L29401). Shorter promoters were obtained by PCR sub-cloning using Kpn-I and Nar-I sites. The primer SEQ ID NO: 5 […] corresponding to luciferase coding sequence was used as reverse primer for all constructs. The following primers were used to produce respectively p-149, p-118, p-70, p-53 and p-31 promoters: SEQ ID NO: 6 […], SEQ ID NO: 7 […], SEQ ID NO: 8 […], SEQ ID NO: 9 […] and SEQ ID NO: 10 […]. A vector containing the 38 bp of the minimal promoter of adenovirus Major Late Promoter (Ham. J. et al., EMBO, 10: 2931-2940 (1991)) was produced using Bgl-II and Hind-III site in pGL3-basic. Four repeats of the SRE sequence present on the human LDL-receptor promoter were introduced in p-MLP vector using Bgl-II site, SEQ ID NO: 11 […] and complementary oligo. HepG2 cells seeded the previous day at 3 10^5 cells per well of 24 well plate were transfected with 1 μg of LDL-promoter containing vector together with p-RL-TK control vector (Promega) using Fugene 6 (Boehringer). HepG2 cells were incubated for 28 hours in the presence of SCAP antagonist and/or 25OH-cholesterol. Firefly luciferase and Renila activity were measured using Dual Luciferase Assay Kit (Promega) and Lumistar (BMG). The ratio of Firefly luciferase to Renila were used to calculate mean and S.D. of tetraplicates.\nA vector containing the human LDL-receptor promoter coupled to Firefly luciferase reporter was made. A mixture of the LDL-receptor vector and control pRL-TK vector was used to transfect HepG2 cells. Cells were incubated with 25OH-cholesterol (0.2 or 1 μM) alone or in the presence (black bars) or absence (gray bars) of Example 1 (1 μM) for 28 hours before measurement of luciferase and renila activity. The ratio of luciferase activity versus renila activity was calculated and the mean and SD of triplicates were expressed as percent of control.\nShortening the LDL-receptor promoter in the same reporter vector modifies the relative luciferase activity (FIG. 3A)."}, "human SREBP-2": {"system": "human SREBP-2", "test": "Western blot analysis of the proteolytic maturation of SREBP-2 in HepG2 cells", "assay_type": "cell-based", "conditions": "1 μM, 18 hours", "protocol": "The involvement of the SREBP pathway was confirmed by Western Blot immunodetection of precursor and mature forms of human SREBP-2.\nHepG2 cells were seeded in 150 cm^2 flasks at 8×10^6 cells and transfected with 10 μg of pTK-HSV-BP2 using Fugene 6 and incubated for 20 h before addition of 1 μM of example 1 or vehicle. After 18 h of incubation, membrane fraction and nuclear extracts were obtained using the method described by Hua, X. et al., J. Biol. Chem. 270: 29422-27 (1995).\nProteins (20 μg/load) were separated on 8% SDS-PAGE and blotted onto BA 83 nitrocellulose membrane (Schleisher & Schuell). The HSV tag present in the amino terminus of SREBP-2 was detected using 0.2 μg/ml of anti-HSV antibodies after saturation with 10% non-fat milk.\nHepG2 cells were transfected (FIG. 4, lane b-e) or not transfected (FIG. 4, lane a) with pTK-HSV-BP2 vector encoding human SREBP-2 preceded by HSV tag. Cells were treated for 18 hours with Example 1 (1 μM) (lane c, d) or vehicle (lane a, b, e) and nuclear extract (lane d, e) and membrane (lane a-c) were isolated and analysed by western blotting using anti-HSV antibodies."}}}
{"smiles": "CCOc1cc(CC)ccc1C1CCN(CCCCNC(=O)c2ccc(NC(=O)c3ccc(Cl)cc3)cc2)CC1", "note": "[Example 1, 4-(4-Chloro-benzoylamino)-N-{4-[4-(2-ethoxy-4-ethyl-phenyl)-piperidin-1-yl]-butyl}-benzamide]", "values": [{"measurement": "LDL-receptor promoter activity on co-treatment with 25OH-cholesterol", "setting": "[1]; 1 μM with 25OH-cholesterol 0.2 or 1 μM, 28 hours, HepG2, FIG. 2", "value": "can at least partially antagonise the effects of 25OH-cholesterol on SCAP"}, {"measurement": "LDL-receptor promoter activity (luciferase/renila ratio)", "setting": "[1]; 1 μM, 28 hours, HepG2, FIG. 2", "value": "acts as a transcriptional activators"}, {"measurement": "response of minimal adenovirus Major Late promoter vector (p-MLP)", "setting": "[1]; 1 μM, HepG2, FIG. 3C", "value": "fails to respond"}, {"measurement": "response of p-MLP vector with 4 copies of SRE", "setting": "[1]; 1 μM, HepG2, FIG. 3C", "value": "sufficient to confer the responsiveness"}, {"measurement": "reporter expression from shortened LDL-receptor promoter constructs", "setting": "[1]; 1 μM, HepG2, p-149 to p-31 constructs, FIG. 3B left", "value": "promote expression only for vectors possessing the SRE sequence"}, {"measurement": "amount of SREBP-2 precursor form in the membrane", "setting": "human SREBP-2; HepG2 transfected with pTK-HSV-BP2, FIG. 4", "value": "reduces the amount of SREBP-2 precursor form present in the membrane"}, {"measurement": "amount of mature SREBP-2 in the nucleus", "setting": "human SREBP-2; HepG2 transfected with pTK-HSV-BP2, nuclear extract, FIG. 4", "value": "strongly increases the amount of mature SREBP-2 in the nucleus"}]}
